The target in assay [1] is T1, MycN Protein (Homo sapiens, UniProt P04198).
T1 construct: endogenous in cells; host or cells: HL-60 or SKNBE2
T1 sequence (P04198 1-464): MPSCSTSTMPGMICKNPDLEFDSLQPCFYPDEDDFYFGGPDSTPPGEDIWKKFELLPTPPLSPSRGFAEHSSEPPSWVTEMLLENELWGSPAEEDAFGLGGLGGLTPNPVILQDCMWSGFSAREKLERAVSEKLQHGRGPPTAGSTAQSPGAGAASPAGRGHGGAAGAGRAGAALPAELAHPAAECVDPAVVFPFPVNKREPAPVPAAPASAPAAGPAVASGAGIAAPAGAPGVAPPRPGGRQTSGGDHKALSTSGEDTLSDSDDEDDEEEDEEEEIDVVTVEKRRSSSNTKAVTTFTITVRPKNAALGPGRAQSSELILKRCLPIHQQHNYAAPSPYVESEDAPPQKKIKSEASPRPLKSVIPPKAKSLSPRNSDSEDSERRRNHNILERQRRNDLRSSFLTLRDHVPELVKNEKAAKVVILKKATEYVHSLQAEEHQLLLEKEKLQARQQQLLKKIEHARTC
As to the kind of experiment: Degradation of MycN protein, Western blot band density in cells. The following applies: HL-60 or SKNBE2 cells; 6 uL of compound (1 mM) added to 3 mL cells; 6 hours; Western blot band density (ImageJ). It counts as cell-based. On the procedure:
(§1) In a T150 flask was plated either 2×10^6 of HL-60 (human leukemia cell line) or SKNBE2 (neuroblastoma cell line) cells in a total of 30 mL containing Roswell Park Memorial Institute (RPMI) 1640 Medium (Thermo Fisher, Cat. #11875-085), 10% Fetal Bovine Serum (FBS, Thermo Fisher: Cat. #10437-028), 1% Penicillin/streptomycin (Thermo Fisher: Cat. #10378016), and 1% Amophotericin B (Thermo Fisher, Cat. #15290026). The cells were split every 72 hours by reseeding the HL-60 or SKNBE2 cells, and the passage number was noted. It is noteworthy that cell cultures that were above 40 passages were not used, and most experiments were done with cells of less than 30 passages.
(§2) In a 6-well cell culture plate, a total of 3 mL of either 1×10^6 cells/mL of HL-60 or SKNBE2 cells were seeded, resulting in a total of 3×10^6 cells per well. To each well containing 3 mL of either HL-60 or SKNBE2 cell line was added 6 uL of MycN modulating compound (1 mM) and the resulting plate was shaken from left to right, and not swirled. After 6 hours, the cells were placed in a 15 mL falcon tube and spun at 500 Gs at 4° C. in a swinging bucket centrifuge. The medium was then carefully removed without disturbing the pellet. The pellet was then washed with 3 mLs of chilled phosphate buffered saline (PBS) and subjected to the spin cycle. PBS was then removed and the pellet was lysed in 200 uL of radioimmunoprecipitation (RIPA) lysis buffer (Thermo Fisher: Cat. #899000) that is supplemented with protease and phosphatase inhibitors (Thermo Fisher: Cat. #A32959). The cell lysate was then subjected to spinning in a centrifuge for 10 minutes at 13000G at 4° C. The supernatant was then carefully transferred to a fresh eppendorf tube without disturbing the pellet (˜180 uL). The protein concentration of the cell lysate was then determined by using a bicinchoninic acid (BCA assay) according to manufacturer's protocol (Thermo Fisher: Cat. #23227).
(§3) Cell lysate, approximately 25 ug-30 ug, was loaded per well in a 4-20% polyacrylamide gel (Biorad. Cat. #5671094). After running the dye front off of the gel, the gel was transferred to a nitrocellulose membrane (Biorad: Cat. #1704159) using the transblot turbo system (Biorad: Cat. #1704150) according to manufacturer's protocol. After transferring for 30 minutes, the membrane was blocked with 5% BSA for 1 hour at room temperature. The BSA was then washed off and the primary antibody of choice (1:500) was added, and the membrane was incubated with the primary antibody at 4° C. for overnight. The next morning, the primary antibody was removed and the membrane was washed with 1×-TBST for 10 minutes and repeated three more times. Following the last wash, a secondary antibody (Molecular Devices. Cat. #R8209 or R8208) was added at 1:5000 dilution and incubated for 1 hour at room temperature. Following the incubation with the secondary antibody, the membrane was washed with 1×-TBST for 10 minutes and repeated three more times. Following the last wash, the membrane was washed with de-ionized water twice and dried for at least two hours. Once the membrane is completely dry, the Molecular Devices Spectra Max western system was used to observe the bands. The western image was saved and the band density was measured with ImageJ software.
Background: A western blot detects proteins with antibodies after separation by electrophoresis.

The target in assay [2] is T2, MycC Protein (Homo sapiens, UniProt P01106).
T2 construct: endogenous in cells; host or cells: HL-60 or SKNBE2
As to the kind of experiment: Degradation of MycC protein, Western blot band density in cells. It counts as cell-based. As to conditions: HL-60 or SKNBE2 cells; 6 uL of compound (1 mM) added to 3 mL cells; 6 hours; Western blot band density (ImageJ). On the procedure:
as §1, §2, §3

Where only a bound is given, the exact number is not on record here.

T2 sequence (P01106 whole entry): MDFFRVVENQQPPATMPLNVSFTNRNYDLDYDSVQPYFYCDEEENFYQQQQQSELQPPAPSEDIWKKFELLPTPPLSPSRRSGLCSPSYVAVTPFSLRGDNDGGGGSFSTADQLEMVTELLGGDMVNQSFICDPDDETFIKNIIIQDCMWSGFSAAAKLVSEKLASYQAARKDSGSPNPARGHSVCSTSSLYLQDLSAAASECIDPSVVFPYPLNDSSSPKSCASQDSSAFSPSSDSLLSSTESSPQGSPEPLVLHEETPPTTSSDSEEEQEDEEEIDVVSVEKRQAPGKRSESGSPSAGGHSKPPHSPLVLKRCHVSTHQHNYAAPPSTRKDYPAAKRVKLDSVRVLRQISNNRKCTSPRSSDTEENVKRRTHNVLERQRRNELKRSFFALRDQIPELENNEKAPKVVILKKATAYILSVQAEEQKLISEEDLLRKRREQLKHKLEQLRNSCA

In general, Dmax refers to the greatest extent of degradation seen. A high value points to a fuller loss of target. Consider `O=C(NC1CCCC(N2CCCC2=O)C1)N[C@H]1CC[C@H](Nc2nccc(Nc3cc(C4CCCC4)[nH]n3)n2)CC1` (mixture of isomers) [Compound 27, 1-((1R,4R)-4-((4-((5-cyclopentyl-1H-pyrazol-3-yl)amino)pyrimidin-2-yl)amino)cyclohexyl)-3-(3-(2-oxopyrrolidin-1-yl)cyclohexyl)urea], for which the Dmax at 2 µM in assay [1] and in assay [2] was under 20% each time.

For `N#Cc1ccc2c(c1)CC(NC(=O)N[C@H]1CC[C@H](Nc3nccc(Nc4cc(C5CCCC5)[nH]n4)n3)CC1)C2` (mixture of isomers) [Compound 11 (Racemic), 1-(5-cyano-2,3-dihydro-1H-inden-2-yl)-3-((1R,4R)-4-((4-((5-cyclopentyl-1H-pyrazol-3-yl)amino)pyrimidin-2-yl)amino)cyclohexyl)urea], in assay [1], the “% Degradation of MycN” value is reported as “**** (****: degradation 80-100%)”. Further, in assay [2], the “% Degradation of MycC” value was “**** (****: degradation 80-100%)”.

With `CN(c1nccc(Nc2cc(C3CCCC3)[nH]n2)n1)C1CCC(NC(=O)NC2Cc3ccc(C#N)cc3C2)CC1` (racemic) [Compound 16 (Racemic), 1-(5-cyano-2,3-dihydro-1H-inden-2-yl)-3-((1R,4R)-4-((4-((5-cyclopentyl-1H-pyrazol-3-yl)amino)pyrimidin-2-yl)(methyl)amino)cyclohexyl)urea], the “% Degradation of MycN” value in assay [1] was “**** (****: degradation 80-100%)”. In addition, in assay [2], the “% Degradation of MycC” value is reported as “**** (****: degradation 80-100%)”.

With `CN(c1nccc(Nc2cc(C3CCCC3)[nH]n2)n1)C1CCC(NC(=O)N[C@H]2CCC[C@@H](C(F)(F)F)C2)CC1` (mixture of isomers) [Compound 121 (Racemic), 1-((1R,4S)-4-((4-((5-cyclopentyl-1H-pyrazol-3-yl)amino)pyrimidin-2-yl)(methyl)amino)cyclohexyl)-3-((1S,3R)-3-(trifluoromethyl)cyclohexyl)urea], the “% Degradation of MycN” value in assay [1] is reported as “*** (***: degradation 50-79%)”. Also, the “% Degradation of MycC” value in assay [2] was “*** (***: degradation 50-79%)”.

Take `CC(=O)N1CCC(NC(=O)N[C@H]2CC[C@H](Nc3nccc(Nc4cc(C5CCCC5)[nH]n4)n3)CC2)CC1` [Compound 2, 1-(1-acetylpiperidin-4-yl)-3-((1R,4R)-4-((4-((5-cyclopentyl-1H-pyrazol-3-yl)amino)pyrimidin-2-yl)amino)cyclohexyl)urea]: the maximal degradation (Dmax) at 2 µM in assay [1] was 20 to 49%; in assay [2], under 20%.

Turning to `CS(=O)(=O)c1ccc2c(c1)CC(NC(=O)N[C@H]1CC[C@H](Nc3nccc(Nc4cc(C5CCCC5)[nH]n4)n3)CC1)C2` (stereo partly drawn) [Compound 3, 1-((1R,4R)-4-((4-((5-cyclopentyl-1H-pyrazol-3-yl)amino)pyrimidin-2-yl)amino)cyclohexyl)-3-(5-(methylsulfonyl)-2,3-dihydro-1H-inden-2-yl)urea], the Dmax at 2 µM in assay [1] lay in the range of 20 to 49%; in assay [2], 50 to 79%.

On to `CC(NC(=O)N[C@H]1CC[C@H](Nc2nccc(Nc3cc(C4CCCC4)[nH]n3)n2)CC1)c1ccccn1` (stereo partly drawn) [Compound 4], for which the Dmax at 2 µM in assay [1] was 20 to 49%; in assay [2] it was 80 to 100%.

For `N#Cc1ccc2c(c1)CC(NC(=O)N[C@H]1CC[C@H](Nc3nccc(Nc4cc(C5CCOC5)[nH]n4)n3)CC1)C2` (stereo partly drawn) [Compound 5, 1-(5-cyano-2,3-dihydro-1H-indene-2-yl)-3-((1R,4R)-4-((4-((5-(tetrahydrofuran-3-yl)-1H-pyrazol-3-yl)amino)pyrimidine-2-yl)amino)cyclohexyl)urea], the Dmax at 2 µM is 20 to 49% in assay [1] and under 20% in assay [2].

`Cc1cc(Nc2ccnc(NC3CCC(N)CC3)n2)n[nH]1` [Compound 6, N^2-((1R,4R)-4-aminocyclohexyl)-N^4-(5-methyl-1H-pyrazol-3-yl)pyrimidine-2,4-diamine]: the “% Degradation of MycN” value in assay [1] is reported as “* (*: degradation <20%)”. Moreover, in assay [2], the “% Degradation of MycC” value was “** (**: degradation 20-49%)”.

Take `CCc1cc(Nc2ccnc(N[C@H]3CC[C@H](NC(=O)NC4Cc5ccc(C#N)cc5C4)CC3)n2)n[nH]1` (stereo partly drawn) [Compound 8, 1-(5-cyano-2,3-dihydro-1H-inden-2-yl)-3-((1R,4R)-4-((4-((5-ethyl-1H-pyrazol-3-yl)amino)pyrimidin-2-yl)amino)cyclohexyl)urea]: the maximal degradation (Dmax) at 2 µM in assay [1] is under 20%; in assay [2], 20 to 49%.

In turn, `O=C(NC1CC2CCC(C1)N2C1CC1)N[C@H]1CC[C@H](Nc2nccc(Nc3cc(C4CCCC4)[nH]n3)n2)CC1` (stereo partly drawn) [Compound 61, 1-((1R,4R)-4-((4-((5-cyclopentyl-1H-pyrazol-3-yl)amino)pyrimidin-2-yl)amino)cyclohexyl)-3-(8-cyclopropyl-8-azabicyclo[3.2.1]octan-3-yl)urea] registered a maximal degradation (Dmax) at 2 µM in assay [1] of under 20%.

Compound `O=C(NC12CCN(CC1)CC2)N[C@H]1CC[C@H](Nc2nccc(Nc3cc(C4CCCC4)[nH]n3)n2)CC1` [Compound 68] displayed a Dmax at 2 µM in assay [1] of 20 to 49%.

In assay [1], `O=C(Nc1cccc(C(F)(F)F)c1)N[C@@H]1CC[C@@H](Nc2nccc(Nc3cc(C4CCCC4)[nH]n3)n2)C1` [Compound 82] returned a maximal degradation (Dmax) at 2 µM of 20 to 49%.

Turning to `CN1CCC(NC(=O)N[C@H]2CC[C@H](Nc3nccc(Nc4cc(C5CCCC5)[nH]n4)n3)CC2)CC1` [Compound 97, 1-((1R,4R)-4-((4-((5-cyclopentyl-1H-pyrazol-3-yl)amino)pyrimidin-2-yl)amino)cyclohexyl)-3-(1-methylpiperidin-4-yl)urea], in assay [1], the Dmax at 2 µM was in the range of 20 to 49%.

Consider `CN(C)C(=N)c1ccc2c(c1)CC(NC(=O)N[C@H]1CC[C@H](Nc3nccc(Nc4cc(C5CCCC5)[nH]n4)n3)CC1)C2` (stereo partly drawn) [Compound 98], for which the Dmax at 2 µM in assay [1] was under 20%.

In assay [1], `N=C(NC1COC1)c1ccc2c(c1)CC(NC(=O)N[C@H]1CC[C@H](Nc3nccc(Nc4cc(C5CCCC5)[nH]n4)n3)CC1)C2` (stereo partly drawn) [Compound 99] gave a Dmax at 2 µM of under 20%.

The compound `O=C(NC1Cc2ccc(C3=NCC(O)CN3)cc2C1)N[C@H]1CC[C@H](Nc2nccc(Nc3cc(C4CCCC4)[nH]n3)n2)CC1` (stereo partly drawn) [Compound 100] yielded a maximal degradation (Dmax) at 2 µM in assay [1] of under 20%.

As for `CN(c1nccc(Nc2cc(C3CCCC3)[nH]n2)n1)[C@H]1CC[C@H](NC(=O)Nc2cccc(C(F)(F)F)c2)CC1` [Compound 146, 1-((1R,4R)-4-((4-((5-cyclopentyl-1H-pyrazol-3-yl)amino)pyrimidin-2-yl)(methyl)amino)cyclohexyl)-3-(3-(trifluoromethyl)phenyl)urea], in assay [1], the Dmax at 2 µM is 50 to 79%.

As for `CN(c1nccc(Nc2cc(C3CC3)[nH]n2)n1)[C@H]1CC[C@H](NC(=O)Nc2cccc(C(F)(F)F)c2)CC1` [Compound 147, 1-((1R,4R)-4-((4-((5-cyclopropyl-1H-pyrazol-3-yl)amino)pyrimidin-2-yl)(methyl)amino)cyclohexyl)-3-(3-(trifluoromethyl)phenyl)urea], in assay [1], the Dmax at 2 µM lay in the range of 80 to 100%.

Consider `CN(c1nccc(Nc2cc(C3CC3)[nH]n2)n1)[C@H]1CC[C@H](NC(=O)NC2Cc3cc(F)c(F)cc3C2)CC1` [Compound 151, 1-((1R,4R)-4-((4-((5-cyclopropyl-1H-pyrazol-3-yl)amino)pyrimidin-2-yl)(methyl)amino)cyclohexyl)-3-(5,6-difluoro-2,3-dihydro-1H-inden-2-yl)urea], for which the maximal degradation (Dmax) at 2 µM in assay [1] is 50 to 79%.

(Values after US20210369710A1, “MODULATORS OF MYC FAMILY PROTO-ONCOGENE PROTEIN” (Nalo Therapeutics, priority 2019, published 2021).)
